According to patent US8530419B2, “Process for the synchronization of ovulation for timed breeding without heat detection” (priority 2003, dated 2013):

Columns and labels:
Format in all cases: in vivo, swine
[1] = test system: postpartum sows; assay: Timed deslorelin injection 96 hours post-weaning, single timed insemination without estrus detection (Example 3)
Experimental: Approximately 170 postpartum sows were randomly divided into two equal groups comprised of controls and treated. Following weaning, the controls were detected for estrus and bred following the normal standard operating procedures for the farms on winch they resided. The treated sows received a 50 mcg dose of deslorelin in SAIB at 96 hours post-weaning and were bred with a single insemination 28+/−2 hours later with no regard to estrus detection. The sows were examined for pregnancy by ultrasound at 21 days and slaughtered around 28 days post breeding. The entire reproductive tract was removed and corpora lutea and embryos were counted.

[2] = test system: ovariectomized estrogen primed gilt; assay: Dose response study of LH release in ovariectomized estrogen primed gilt model (RIA); settings: single injection of 50 mcg deslorelin in SAIB
Experimental: A dose response study was performed using deslorelin in SAIB in an ovariectomized estrogen primed gilt model (Barb, et at (1999) Proceed. Int'l. Symp. Control, Rel. Bioact. Mater., 26).

[3] = test system: postpartum sows; assay: Litter size after deslorelin treatment at three farm sites (Example 4); settings: Tables 3, 4 and 5; regardless of estrus detection
Source text: Postpartum sows were randomly distributed into three different groups comprised of Controls, Treatment 1, and Treatment 2, with the exception of Site 3, which was divided into two groups, Control and Treatment 2. Control sows were detected for estrus following weaning, and bred following the normal standard operating procedures for the farms on which they resided. Treatment 1 sows were detected for estrus following weaning, and received a 50 mcg dose of deslorelin in the morning when standing and were bred by AI 4 hours later and again at 24+/−2 hours later. Treatment 2 sows received a 50 mcg dose of deslorelin in SAIB at 96 or 120 hours post-weaning and were bred with a single insemination 28+/−2 hours later with no regard to estrus detection.

Structure (SMILES): CCNC(=O)[C@@H]1CCCN1C(=O)[C@H](CCCN=C(N)N)NC(=O)[C@H](CC(C)C)NC(=O)[C@@H](Cc1c[nH]c2ccccc12)NC(=O)[C@H](Cc1ccc(O)cc1)NC(=O)[C@H](CO)NC(=O)[C@H](Cc1c[nH]c2ccccc12)NC(=O)[C@H](Cc1cnc[nH]1)NC(=O)[C@@H]1CCC(=O)N1 [Deslorelin, deslorelin]
- Pregnancy Rate ([1]; 50 mcg in SAIB at 96 hours post-weaning, single insemination 28+/-2 hours later, no estrus detection): 71%
- Embryo Survival ([1]; 50 mcg in SAIB at 96 hours post-weaning, slaughtered around 28 days post breeding): 64%
- pregnancy rates (in words) ([1]; single timed injection post-weaning, single timed insemination, no estrus detection): normal pregnancy rates were attained
- time at which LH returned to base level [2]: ≤ 18 h
- LH peak ([2]; compared to Hansel et al. (1973)): about twice normal value
- litter sizes (in words) [3]: normal litter sizes
